# According to US12054498B2, “Heteroaromatic macrocyclic ether chemotherapeutic agents” (Nuvalent, Inc., priority 2020, dated 2024):
# Experiments:
# [1] = target: T1, ALK-wt (Homo sapiens, UniProt Q9UM73); experiment: Biochemical kinase assay, ALK-wt kinase domain; details: apparent inhibitory constant, Morrison equation; ATP 2 mM in substrate solution; read-out: ALK-wt Ki^app
# T1 construct: purchased Carna 08-518
# Method: (§1) First, 250 nL of compound dissolved in DMSO (100-fold of the desired concentration) was dispensed into a 384-well plate. A 12.5 μL substrate solution containing ATP (2 mM) and fluorogenic phosphorylation substrate AQT0101 (26 μM for ALK and ROS1, AssayQuant) or AQT0104 (26 μM for TRKA, AssayQuant) in buffer (50 mM HEPES pH 7.5, 0.01% Brij-35, 0.5 mM EGTA, 10 mM MgCl2) was added and mixed thoroughly. Then, a 12.5 μL kinase solution containing ALK-wt (1.5 nM, Carna, 08-518), ALK ALK L1196M/G1202R (3 nM, SignalChem, A19-12NG), ROS1-wt (0.6 nM, Carna, 08-163), ROS1-G2032R (0.5 nM, SignalChem, R14-12BG), or TRKA-wt (1 nM, BPS Bio, 40280) kinase domains in buffer (50 nM HEPES pH 7.5, 0.01% Brij-35, 2% glycerol, 0.4 mg/mL BSA, 0.5 mM EGTA, and 10 mM MgCl2) was added and mixed thoroughly. The plate was sealed and read by SpectraMax Paradigm at λ=485 nm every 2 minutes for 120 minutes at 30° C. Initial rates of reaction (v) were calculated from the change in fluorescence intensity over time during the initial, linear portion of the reaction. Finally, apparent inhibitory constants (Ki^app) were determined from regression of v and I (inhibitor concentration) to Morrison Equation (E=enzyme concentration): […]
# [2] = target: T2, ALK L1196M/G1202R (Homo sapiens, UniProt Q9UM73, G1202R/L1196M); experiment: Biochemical kinase assay, ALK L1196M/G1202R kinase domain; details: apparent inhibitory constant, Morrison equation; ATP 2 mM in substrate solution; read-out: ALK-L1196M-G1202R Ki^app
# T2 construct: purchased SignalChem A19-12NG
# Method: as §1
# [3] = target: T3, ROS1-wt (Homo sapiens, UniProt P08922); experiment: Biochemical kinase assay, ROS1-wt kinase domain; details: apparent inhibitory constant, Morrison equation; ATP 2 mM in substrate solution; read-out: ROS1-wt Ki^app
# T3 construct: purchased Carna 08-163
# Method: as §1, with “Then, a 12.5 μL kinase solution containing ALK-wt (1.5 nM, Carna, 08-518), ALK ALK L1196M/G1202R (3 nM, SignalChem, A19-12NG), ROS1-wt (0.6 nM, Carna, 08-163), ROS1-G2032R (0.5 nM, SignalChem, R14-12BG), or TRKA-wt (1 nM, BPS Bio, 40280) kinase domains in buffer (50 nM HEPES pH 7.5, 0.01% Brij-35, 2% glycerol, 0.4 mg/mL BSA, 0.5 mM EGTA, and 10 mM MgCl2) was added and mixed thoroughly.” left out
# [4] = target: T4, ROS1-G2032R (Homo sapiens, UniProt P08922, G2032R); experiment: Biochemical kinase assay, ROS1-G2032R kinase domain; details: apparent inhibitory constant, Morrison equation; ATP 2 mM in substrate solution; read-out: ROS1-G2032R Ki^app
# T4 construct: purchased SignalChem R14-12BG
# Method: as §1, with “Then, a 12.5 μL kinase solution containing ALK-wt (1.5 nM, Carna, 08-518), ALK ALK L1196M/G1202R (3 nM, SignalChem, A19-12NG), ROS1-wt (0.6 nM, Carna, 08-163), ROS1-G2032R (0.5 nM, SignalChem, R14-12BG), or TRKA-wt (1 nM, BPS Bio, 40280) kinase domains in buffer (50 nM HEPES pH 7.5, 0.01% Brij-35, 2% glycerol, 0.4 mg/mL BSA, 0.5 mM EGTA, and 10 mM MgCl2) was added and mixed thoroughly.” left out
# [5] = target: T5, TRKA-wt (Homo sapiens, UniProt P04629); experiment: Biochemical kinase assay, TRKA-wt kinase domain; details: apparent inhibitory constant, Morrison equation; ATP 2 mM in substrate solution; read-out: TRKA-wt Ki^app
# T5 construct: or TRKA-wt (1 nM, BPS Bio, 40280) kinase domains in buffer; purchased BPS Bio 40280
# Method: as §1
# [6] = target: T6, Ba/F3 cells CD74-ROS1 wild-type (wt) (Homo sapiens, UniProt P08922); experiment: Ba/F3 cell proliferation assay, CD74-ROS1 wild-type; assay type: cell-based; details: 72 hours, CellTiter-Glo
# T6 construct: fusion of the C-terminus of ROS1 with the N-terminus of various partner proteins; host or cells: Ba/F3 (RIKEN), retroviral pMSCV-puro; the other entry of the earlier key: CD74 (P04233, HLA class II histocompatibility antigen gamma chain)
# Procedure, shortened: (§2)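 Cells were seeded 1 day, then exposed to a 3-fold compound dilution series for 72 hours. Viability was read by CellTiter-Glo luminescence; IC50 came from four-parameter logistic fitting of percent inhibition.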
# [7] = target: T7, Ba/F3 cells CD74-ROS1 G2032R (Homo sapiens, UniProt P08922, G2032R); experiment: Ba/F3 cell proliferation assay, CD74-ROS1 G2032R; assay type: cell-based; details: 72 hours, CellTiter-Glo
# T7 construct: fusion of the C-terminus of ROS1 with the N-terminus of various partner proteins; host or cells: Ba/F3 (RIKEN), retroviral pMSCV-puro; the other entry of the earlier key: CD74 (P04233, HLA class II histocompatibility antigen gamma chain)
# Procedure, shortened: as §2
# [8] = target: T8, Ba/F3 cells EML4-ALK wt (variant 1) (Homo sapiens, UniProt Q9UM73); experiment: Ba/F3 cell proliferation assay, EML4-ALK wt (variant 1); assay type: cell-based; details: 72 hours, CellTiter-Glo
# T8 construct: echinoderm microtubule-associated protein-like 4 (EML4) gene and the ALK tyrosine kinase domain; host or cells: Ba/F3 (RIKEN), retroviral pMSCV-puro; the other entry of the earlier key: EML4 (Q9HC35, Echinoderm microtubule-associated protein-like 4)
# Procedure, shortened: (§3)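 IL-3-independent Ba/F3 monoclones, puromycin-selected, transduced with fusion genes; 1,000 cells/well, 1 day rest, 3-fold compound series, 72 h. Read: CellTiter-Glo luminescence. IC50 from % inhibition vs concentration, 4-parameter logistic.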
# [9] = target: T9, Ba/F3 cells EML4-ALK L1196M/G1202R (variant 1) (Homo sapiens, UniProt Q9UM73, G1202R/L1196M); experiment: Ba/F3 cell proliferation assay, EML4-ALK L1196M/G1202R (variant 1); assay type: cell-based; details: 72 hours, CellTiter-Glo
# T9 construct: echinoderm microtubule-associated protein-like 4 (EML4) gene and the ALK tyrosine kinase domain; host or cells: Ba/F3 (RIKEN), retroviral pMSCV-puro; the other entry of the earlier key: EML4 (Q9HC35, Echinoderm microtubule-associated protein-like 4)
# Procedure, shortened: as §3
# [10] = target: T10, Ba/F3 cells TPM3-TRKA (Homo sapiens, UniProt P04629); experiment: Ba/F3 cell proliferation assay, TPM3-TRKA; assay type: cell-based; details: 72 hours, CellTiter-Glo, read-out: TPM3-NTRK1-wt IC50
# T10 construct: host or cells: Ba/F3 (RIKEN), retroviral pMSCV-puro; the other entry of the earlier key: TPM3 (P06753, Tropomyosin alpha-3 chain)
# Procedure, shortened: as §3
# [11] = system: TPM3-NTRK1-wt IC50 / primary target IC50 (e.g. CD74-ROS1-wt); experiment: TRKA selectivity in Ba/F3 cells (TRKA potency divided by primary target potency); assay type: cell-based; details: for TPM3-NTRK1-wt/CD74-ROS1-G2032R selectivity ratio: TRKA potency / CD74-ROS1-G2032R potency; for TPM3-NTRK1-wt/CD74-ROS1-wt selectivity ratio: TRKA potency / CD74-ROS1-wt potency; for TPM3-NTRK1-wt/EML4-ALK-L1196M-G1202R selectivity ratio: TRKA potency / EML4-ALK-L1196M-G1202R potency; for TPM3-NTRK1-wt/EML4-ALK-wt selectivity ratio: TRKA potency / EML4-ALK-wt potency
# Method: TRKA selectivity was calculated by dividing a compound's TRKA potency by its primary target potency (e.g. TPM3-NTRK1-wt IC50/CD74-ROS1-wt IC50). Compound selectivity can be interpreted by binning ratio values: bin A for very high selectivity, ratio >30-fold; bin B for high selectivity, ratio >10-fold; bin C for moderate selectivity, ratio ≥1; and bin D for low selectivity, ratio <1. […] (nd=not determined).
# T8 sequence (Q9UM73 with tags, fused parts or gaps): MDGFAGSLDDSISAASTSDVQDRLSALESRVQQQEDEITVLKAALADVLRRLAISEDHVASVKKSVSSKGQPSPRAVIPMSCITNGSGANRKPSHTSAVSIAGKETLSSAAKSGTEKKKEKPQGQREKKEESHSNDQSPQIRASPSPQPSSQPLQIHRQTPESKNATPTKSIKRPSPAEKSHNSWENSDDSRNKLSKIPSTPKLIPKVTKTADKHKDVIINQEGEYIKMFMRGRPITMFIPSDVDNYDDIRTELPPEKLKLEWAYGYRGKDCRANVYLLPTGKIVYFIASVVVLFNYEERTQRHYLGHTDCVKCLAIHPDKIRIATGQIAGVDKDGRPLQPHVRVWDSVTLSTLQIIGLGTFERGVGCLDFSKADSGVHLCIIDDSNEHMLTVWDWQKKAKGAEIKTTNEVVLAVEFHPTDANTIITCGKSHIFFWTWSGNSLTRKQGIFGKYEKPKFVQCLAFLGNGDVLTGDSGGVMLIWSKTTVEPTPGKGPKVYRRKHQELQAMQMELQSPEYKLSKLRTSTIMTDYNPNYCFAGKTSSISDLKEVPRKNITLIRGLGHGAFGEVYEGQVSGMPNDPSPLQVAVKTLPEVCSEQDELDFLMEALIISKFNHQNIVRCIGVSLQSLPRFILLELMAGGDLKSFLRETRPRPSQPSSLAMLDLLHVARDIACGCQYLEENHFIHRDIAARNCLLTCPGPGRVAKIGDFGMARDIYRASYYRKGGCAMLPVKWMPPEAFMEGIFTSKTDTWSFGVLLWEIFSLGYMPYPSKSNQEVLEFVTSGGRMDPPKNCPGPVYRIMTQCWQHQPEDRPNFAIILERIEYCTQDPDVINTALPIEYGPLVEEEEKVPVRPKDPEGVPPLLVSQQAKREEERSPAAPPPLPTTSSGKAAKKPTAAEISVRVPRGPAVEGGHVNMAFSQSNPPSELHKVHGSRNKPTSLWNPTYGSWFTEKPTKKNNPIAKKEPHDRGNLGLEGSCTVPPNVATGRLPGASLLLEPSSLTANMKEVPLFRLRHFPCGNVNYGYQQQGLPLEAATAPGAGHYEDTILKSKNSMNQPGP
# T3 sequence (P08922 1945-2222 limits assumed): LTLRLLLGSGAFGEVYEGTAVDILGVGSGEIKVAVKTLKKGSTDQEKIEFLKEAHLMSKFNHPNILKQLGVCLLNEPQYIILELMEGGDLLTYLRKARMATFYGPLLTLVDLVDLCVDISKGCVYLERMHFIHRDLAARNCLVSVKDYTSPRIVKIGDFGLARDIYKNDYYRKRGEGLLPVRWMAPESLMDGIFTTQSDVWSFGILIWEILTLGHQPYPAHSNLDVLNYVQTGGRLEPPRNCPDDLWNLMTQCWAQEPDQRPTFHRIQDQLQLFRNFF
# T7 sequence (P08922 1883-2347 G2032R limits assumed): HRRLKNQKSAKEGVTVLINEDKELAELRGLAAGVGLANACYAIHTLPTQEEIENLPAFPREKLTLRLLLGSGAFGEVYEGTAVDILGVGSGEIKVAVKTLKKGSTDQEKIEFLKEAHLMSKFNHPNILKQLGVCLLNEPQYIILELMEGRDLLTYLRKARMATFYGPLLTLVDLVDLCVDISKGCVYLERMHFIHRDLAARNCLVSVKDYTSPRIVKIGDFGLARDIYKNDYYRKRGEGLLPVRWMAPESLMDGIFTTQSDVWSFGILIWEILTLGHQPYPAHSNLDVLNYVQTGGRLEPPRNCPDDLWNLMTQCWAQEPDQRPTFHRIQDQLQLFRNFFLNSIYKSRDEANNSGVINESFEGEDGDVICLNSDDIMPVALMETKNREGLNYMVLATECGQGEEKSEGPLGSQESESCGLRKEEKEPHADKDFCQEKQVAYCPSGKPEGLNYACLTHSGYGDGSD
# T4 sequence (P08922 1945-2222 G2032R limits assumed): as the sequence (P08922 1945-2222 limits assumed) above, with G88R counted along it
# T6 sequence (P08922 1883-2347 limits assumed): as the sequence (P08922 1883-2347 G2032R limits assumed) above, with R150G counted along it
# T10 sequence (P04629 510-796 limits assumed): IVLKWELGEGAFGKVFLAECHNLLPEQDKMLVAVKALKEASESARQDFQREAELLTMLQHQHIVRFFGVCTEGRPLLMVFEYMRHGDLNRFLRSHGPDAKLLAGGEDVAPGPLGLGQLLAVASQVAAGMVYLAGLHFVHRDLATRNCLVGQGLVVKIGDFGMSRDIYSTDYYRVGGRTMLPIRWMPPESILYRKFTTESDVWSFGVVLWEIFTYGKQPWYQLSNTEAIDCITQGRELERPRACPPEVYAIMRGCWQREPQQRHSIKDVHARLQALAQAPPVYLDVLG
# T5 sequence (P04629 510-781 limits assumed): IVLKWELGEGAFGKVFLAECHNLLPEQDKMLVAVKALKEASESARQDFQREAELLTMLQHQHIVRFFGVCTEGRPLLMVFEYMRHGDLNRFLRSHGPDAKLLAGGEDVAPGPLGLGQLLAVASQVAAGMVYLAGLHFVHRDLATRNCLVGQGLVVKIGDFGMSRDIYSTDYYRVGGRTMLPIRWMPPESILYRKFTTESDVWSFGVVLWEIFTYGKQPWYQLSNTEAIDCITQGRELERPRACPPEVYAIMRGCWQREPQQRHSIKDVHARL
# T9 sequence (Q9UM73 with tags, fused parts or gaps L1196M/G1202R): as the sequence (Q9UM73 with tags, fused parts or gaps) above, with L635M, G641R counted along it
# T1 sequence (Q9UM73 1116-1392 limits assumed): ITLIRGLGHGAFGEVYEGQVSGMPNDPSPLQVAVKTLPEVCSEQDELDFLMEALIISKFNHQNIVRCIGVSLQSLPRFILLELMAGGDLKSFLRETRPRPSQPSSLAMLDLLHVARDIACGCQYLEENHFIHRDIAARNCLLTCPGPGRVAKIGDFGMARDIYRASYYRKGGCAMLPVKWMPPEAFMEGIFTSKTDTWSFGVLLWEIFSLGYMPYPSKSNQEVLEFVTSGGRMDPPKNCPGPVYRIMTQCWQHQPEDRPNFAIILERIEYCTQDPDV
# T2 sequence (Q9UM73 1116-1392 L1196M/G1202R limits assumed): as the sequence (Q9UM73 1116-1392 limits assumed) above, with L81M, G87R counted along it
Structure (SMILES),Ki [1] [nM],Ki [2] [nM],Ki [3] [nM],Ki [4] [nM],Ki [5] [nM],IC50 [6] [nM],IC50 [7] [nM],IC50 [8] [nM],IC50 [9] [nM],IC50 [10] [nM],TPM3-NTRK1-wt/CD74-ROS1-G2032R selectivity ratio [11],TPM3-NTRK1-wt/CD74-ROS1-wt selectivity ratio [11],TPM3-NTRK1-wt/EML4-ALK-L1196M-G1202R selectivity ratio [11],TPM3-NTRK1-wt/EML4-ALK-wt selectivity ratio [11]
"C[C@H]1Oc2cc(cnc2N)-c2c(cnn2C(F)F)Cn2nccc2-c2ccc(F)cc21 [Example 12, (19R)-3-(difluoromethyl)-16-fluoro-19-methyl-20-oxa-3,4,8,9,23-pentaazapentacyclo[19.3.1.0^2,^6.0^8,^12.0^13,^18]pentacosa-1(24),2(6),4,9,11,13,15,17,21(25),22-decaen-22-amine]",< 50,50 to 500,< 50,50 to 500,> 500,0.1 to 50,0.1 to 50,50 to 500,> 500,> 500,"A (bin A for very high selectivity, ratio >30-fold)","A (bin A for very high selectivity, ratio >30-fold)","C (bin C for moderate selectivity, ratio ≥1)","A (bin A for very high selectivity, ratio >30-fold)"
"C[C@H]1Oc2cc(cnc2N)-c2c(cnn2C2CCC2)Cc2nn(C)nc2-c2ccc(F)cc21 [Example 13, (19R)-3-cyclobutyl-16-fluoro-10,19-dimethyl-20-oxa-3,4,9,10,11,23-hexaazapentacyclo[19.3.1.0^2,^6.0^8,^12.0^13,^18]pentacosa-1(24),2(6),4,8,11,13,15,17,21(25),22-decaen-22-amine]",< 50,< 50,< 50,< 50,> 500,0.1 to 50,0.1 to 50,0.1 to 50,0.1 to 50,> 500,"A (bin A for very high selectivity, ratio >30-fold)","A (bin A for very high selectivity, ratio >30-fold)","A (bin A for very high selectivity, ratio >30-fold)","A (bin A for very high selectivity, ratio >30-fold)"
"C[C@H]1Oc2cc(cnc2N)-c2c(cnn2C2CC2)Cc2nn(C)nc2-c2ccc(F)cc21 [Example 14, (19R)-3-cyclopropyl-16-fluoro-10,19-dimethyl-20-oxa-3,4,9,10,11,23-hexaazapentacyclo[19.3.1.0^2,^6.0^8,^12.0^13,^18]pentacosa-1(24),2(6),4,8,11,13,15,17,21(25),22-decaen-22-amine]",< 50,< 50,< 50,< 50,50 to 500,0.1 to 50,0.1 to 50,0.1 to 50,50 to 500,50 to 500,"A (bin A for very high selectivity, ratio >30-fold)","A (bin A for very high selectivity, ratio >30-fold)","C (bin C for moderate selectivity, ratio ≥1)","A (bin A for very high selectivity, ratio >30-fold)"
"CCn1ncc2c1-c1cnc(N)c(c1)O[C@H](C)c1cc(F)ccc1-c1cc(F)nn1C2 [Example 15, (19R)-3-ethyl-10,16-difluoro-19-methyl-20-oxa-3,4,8,9,23-pentaazapentacyclo[19.3.1.0^2,^6.0^8,^12.0^13,^18]pentacosa-1(24),2(6),4,9,11,13,15,17,21(25),22-decaen-22-amine]",< 50,< 50,< 50,< 50,50 to 500,0.1 to 50,0.1 to 50,0.1 to 50,0.1 to 50,50 to 500,"A (bin A for very high selectivity, ratio >30-fold)","A (bin A for very high selectivity, ratio >30-fold)","C (bin C for moderate selectivity, ratio ≥1)","A (bin A for very high selectivity, ratio >30-fold)"
"CCn1ncc2c1-c1cnc(N)c(c1)O[C@H](C)c1cc(F)ccc1-c1cc(Cl)nn1C2 [Example 16, (19R)-10-chloro-3-ethyl-16-fluoro-19-methyl-20-oxa-3,4,8,9,23-pentaazapentacyclo[19.3.1.0^2,^6.0^8,^12.0^13,^18]pentacosa-1(24),2(6),4,9,11,13,15,17,21(25),22-decaen-22-amine]",< 50,< 50,< 50,< 50,< 50,0.1 to 50,0.1 to 50,0.1 to 50,0.1 to 50,50 to 500,"A (bin A for very high selectivity, ratio >30-fold)","A (bin A for very high selectivity, ratio >30-fold)","C (bin C for moderate selectivity, ratio ≥1)","B (bin B for high selectivity, ratio >10-fold)"
"C[C@H]1Oc2cc(cnc2N)-c2c(C#N)ncn2Cc2ncncc2-c2ccc(F)cc21 [Example 18, (20R)-23-amino-17-fluoro-20-methyl-21-oxa-4,6,9,11,24-pentaazapentacyclo[20.3.1.0^2,^6.0^8,^13.0^14,^19]hexacosa-1(25),2,4,8(13),9,11,14,16,18,22(26),23-undecaene-3-carbonitrile]",< 50,50 to 500,< 50,50 to 500,> 500,0.1 to 50,50 to 500,50 to 500,> 500,> 500,"A (bin A for very high selectivity, ratio >30-fold)","A (bin A for very high selectivity, ratio >30-fold)","C (bin C for moderate selectivity, ratio ≥1)","A (bin A for very high selectivity, ratio >30-fold)"
